Legend:
[1] = test system: B/Malaysia/2506/2004 (B-Mal); type: cell-based, influenza virus
[2] = test system: A/Hamburg/05/2009 (H1N1); type: cell-based, influenza virus
[3] = test system: A/Hessen/1/2003 (H3N2); type: cell-based, influenza virus
[4] = test system: G. mellonella larvae; test: Insecticidal activity by injection into larvae; type: in vivo, Galleria mellonella; details: 50 ng peptide injected, 3 cohorts of 10 larvae, survival monitored for 5 days
Method: Insecticidal activity was determined using fourth and fifth instar G. mellonella larvae (L4/L5) obtained from Fauna Topics Zoobedarf Zucht und Handels GmbH (Marbach am Neckar, Germany). Because spider venom is injected via chelicerae, we opted for an injection-based assay to reflect the natural process of envenomation as described earlier. The peptides were dissolved in a 1:1 mixture of DMSO and water to a final concentration of 10 mmol/L. We injected 50 ng of each peptide into the pseudopodium using Omnican-F, 0.30 × 12 mm/G 30 × 1/2”, a 1 mL syringe adjusted to a WPI manual microsyringe injector setup. Injections with water, DMSO/water (1:1) and ethanol (90%) were used as controls, alongside untreated specimens. Insecticidal activity screenings were performed in cohorts of 10 larvae with 3 replicates (30 specimens per treatment or control). […] Survival was monitored every 24 h for 5 days. Mortality was calculated based on the ratio of dead to injected specimens.

[5] = test system: Pseudomonas aeruginosa DSM 1117; test: Antibacterial growth assay (OD600); details: OD600, medium = 100, MH II broth, 37 °C, peptide 200 µM mixed 50 µL + 50 µL with bacteria, Figure 7: 48 h; for Bacterial growth relative to medium, P. aeruginosa (1117), replicate 1: replicate column 1; for Bacterial growth relative to medium, P. aeruginosa (1117), replicate 2: replicate column 2; for Bacterial growth relative to medium, P. aeruginosa (1117), replicate 3: replicate column 3
[6] = test system: Pseudomonas aeruginosa DSM 50071; test: Antibacterial growth assay (OD600); details: OD600, medium = 100, MH II broth, 37 °C, peptide 200 µM mixed 50 µL + 50 µL with bacteria, Figure 7: 48 h; for Bacterial growth relative to medium, P. aeruginosa (50071), replicate 1: replicate column 1; for Bacterial growth relative to medium, P. aeruginosa (50071), replicate 2: replicate column 2; for Bacterial growth relative to medium, P. aeruginosa (50071), replicate 3: replicate column 3
Method: (§1) Cryo-conserved cultures of selected bacterial strains (Table 4) were transferred to Tryptic Soy Agar (TSA) plates (Carl Roth) with a sterile inoculation loop, sealed with Parafilm (BEMIS, Neenah, WI, USA), and incubated for 1–2 days at 37 °C depending on growth. Single colonies were picked and transferred into 2–3 mL of the Mueller–Hinton II (MH II) broth (BD, Heidelberg, Germany). The bacteria were cultivated overnight, subcultured on fresh medium and grown for 3–4 h before testing at 37 °C, with shaking at 180 rpm. We measured the optical density at 600 nm (OD600) of 1 mL of the bacterial suspensions in polystyrene cuvettes (SARSTED, Nümbrecht, Germany) using an Ultrospec 10 spectrophotometer (Biochrome, Cambridge, UK). We then diluted them with the MH II medium to the preferred OD600 (Table 2). The peptides were dissolved in DMSO to generate 10 mmol/L stocks and diluted with the MH II medium to 200 µM before the assay. We used 10 µg/mL (~40 µg/mL for S. epidermidis) gentamicin and colistin (Sigma-Aldrich, Taufkirchen, Germany), DMSO and the medium only as controls. The bacteria were transferred to 96-multiwell plates with a final volume of 100 µL per well (50 µL bacterial suspension, and 50 µL test peptide). The OD600 was measured at 0, 24 and 48 h using a BioTek Eon microplate reader followed by analysis with Gen5 v2.09.

[7] = test system: Micrococcus luteus DSM 20030; test: Antibacterial growth assay (OD600); details: OD600, medium = 100, MH II broth, 37 °C, peptide 200 µM mixed 50 µL + 50 µL with bacteria, Figure 7: 48 h; for Bacterial growth relative to medium, M. luteus, replicate 1: replicate column 1; for Bacterial growth relative to medium, M. luteus, replicate 2: replicate column 2; for Bacterial growth relative to medium, M. luteus, replicate 3: replicate column 3
Method: as §1

[8] = test system: Staphylococcus aureus DSM 2569; test: Antibacterial growth assay (OD600); details: for Bacterial growth relative to medium, S. aureus, replicate 1 / Bacterial growth relative to medium, S. aureus, replicate 2 / Bacterial growth relative to medium, S. aureus, replicate 3: OD600, medium = 100, MH II broth, 37 °C, peptide 200 µM mixed 50 µL + 50 µL with bacteria, Figure 7: 48 h; for Bacterial growth relative to medium, S. aureus, replicate 1: replicate column 1; for Bacterial growth relative to medium, S. aureus, replicate 2: replicate column 2; for Bacterial growth relative to medium, S. aureus, replicate 3: replicate column 3; for Antibacterial activity (in words): S. aureus DSM 2569, growth after 48 h
[9] = test system: Escherichia coli BL21(DE3); test: Antibacterial growth assay (OD600); details: OD600, medium = 100, MH II broth, 37 °C, peptide 200 µM mixed 50 µL + 50 µL with bacteria, Figure 7: 48 h; for Bacterial growth relative to medium, E. coli, replicate 1: replicate column 1; for Bacterial growth relative to medium, E. coli, replicate 2: replicate column 2; for Bacterial growth relative to medium, E. coli, replicate 3: replicate column 3
[10] = test system: Listeria monocytogenes DSM 20600; test: Antibacterial growth assay (OD600); details: OD600, medium = 100, MH II broth, 37 °C, peptide 200 µM mixed 50 µL + 50 µL with bacteria, Figure 7: 48 h; for Bacterial growth relative to medium, L. monocytogenes, replicate 1: replicate column 1; for Bacterial growth relative to medium, L. monocytogenes, replicate 2: replicate column 2; for Bacterial growth relative to medium, L. monocytogenes, replicate 3: replicate column 3
[11] = test system: Staphylococcus epidermidis DSM 28319; test: Antibacterial growth assay (OD600); details: for Bacterial growth relative to medium, S. epidermidis, replicate 1 / Bacterial growth relative to medium, S. epidermidis, replicate 2 / Bacterial growth relative to medium, S. epidermidis, replicate 3: OD600, medium = 100, MH II broth, 37 °C, peptide 200 µM mixed 50 µL + 50 µL with bacteria, Figure 7: 48 h; for Bacterial growth relative to medium, S. epidermidis, replicate 1: replicate column 1; for Bacterial growth relative to medium, S. epidermidis, replicate 2: replicate column 2; for Bacterial growth relative to medium, S. epidermidis, replicate 3: replicate column 3; for Antibacterial activity (in words): S. epidermidis DSM 28319, growth after 48 h

Row | Sequence | Viability of infected cells relative to aprotinin, Replicate 1 [1] | Viability of infected cells relative to aprotinin, Replicate 2 [1] | Viability of infected cells relative to aprotinin, Replicate 3 [1] | Viability of infected cells relative to aprotinin, Replicate 1 [2] | Viability of infected cells relative to aprotinin, Replicate 2 [2] | Viability of infected cells relative to aprotinin, Replicate 3 [2] | Viability of infected cells relative to aprotinin, Replicate 1 [3] | Viability of infected cells relative to aprotinin, Replicate 2 [3] | Viability of infected cells relative to aprotinin, Replicate 3 [3] | Insecticidal effect on larvae (in words) [4] | Bacterial growth relative to medium, P. aeruginosa (1117), replicate 1 [5] | Bacterial growth relative to medium, P. aeruginosa (1117), replicate 2 [5] | Bacterial growth relative to medium, P. aeruginosa (1117), replicate 3 [5] | Bacterial growth relative to medium, P. aeruginosa (50071), replicate 1 [6] | Bacterial growth relative to medium, P. aeruginosa (50071), replicate 2 [6] | Bacterial growth relative to medium, P. aeruginosa (50071), replicate 3 [6] | Bacterial growth relative to medium, M. luteus, replicate 1 [7] | Bacterial growth relative to medium, M. luteus, replicate 2 [7] | Bacterial growth relative to medium, M. luteus, replicate 3 [7] | Bacterial growth relative to medium, S. aureus, replicate 1 [8] | also measured
1 | SLLGLLDVVKSKIGQT [LS-AMP-A15] | 0.05034 | 0.05082 | 0.05878 | 0.04491 | 0.03692 | 0.03514 | 0.1635 | 0.1644 | 0.1569 | Individual dead insects | 80.9004 | 77.0275 | 69.3765 | 101.444 | 115.913 | 84.6093 | 87.1981 | 100.338 | 54.7585 | 62.2914 | Viability of infected cells relative to aprotinin, Replicate 4 ([3]; […], replicate 4 (additional internal control)): 0.1576; Bacterial growth relative to medium, S. aureus, replicate 2 [8]: 63.5709; Bacterial growth relative to medium, S. aureus, replicate 3 [8]: 94.1265; Antibacterial activity (in words) [8]: limited activity; Bacterial growth relative to medium, E. coli, replicate 1 [9]: 103.062; Bacterial growth relative to medium, E. coli, replicate 2 [9]: 89.9768; Bacterial growth relative to medium, E. coli, replicate 3 [9]: 48.0425; Bacterial growth relative to medium, L. monocytogenes, replicate 1 [10]: 129.232; Bacterial growth relative to medium, L. monocytogenes, replicate 2 [10]: 92.1308; Bacterial growth relative to medium, L. monocytogenes, replicate 3 [10]: 85.5096; Bacterial growth relative to medium, S. epidermidis, replicate 1 [11]: 84.6766; Bacterial growth relative to medium, S. epidermidis, replicate 2 [11]: 83.7361; Bacterial growth relative to medium, S. epidermidis, replicate 3 [11]: 92.3812; Antibacterial activity (in words) [11]: limited activity
2 | SLLGLLDVVKSKIGQTGLL [LS-AMP-A13] | 0.08268 | 0.06182 | 0.0661 | 0.06606 | 0.03634 | 0.07331 | 0.1762 | 0.09602 | 0.1319 | Individual dead insects | 81.1135 | 69.8921 | 76.1614 | 102.39 | 115.883 | 93.6736 | 108.132 | 162.387 | 79.7227 | 71.9833 | Bacterial growth relative to medium, S. aureus, replicate 2 [8]: 81.2949; Bacterial growth relative to medium, S. aureus, replicate 3 [8]: 106.322; Antibacterial activity (in words) [8]: limited activity; Bacterial growth relative to medium, E. coli, replicate 1 [9]: 109.532; Bacterial growth relative to medium, E. coli, replicate 2 [9]: 109.096; Bacterial growth relative to medium, E. coli, replicate 3 [9]: 112.001; Bacterial growth relative to medium, L. monocytogenes, replicate 1 [10]: 131.861; Bacterial growth relative to medium, L. monocytogenes, replicate 2 [10]: 134.66; Bacterial growth relative to medium, L. monocytogenes, replicate 3 [10]: 121.808; Bacterial growth relative to medium, S. epidermidis, replicate 1 [11]: 109.035; Bacterial growth relative to medium, S. epidermidis, replicate 2 [11]: 130.725; Bacterial growth relative to medium, S. epidermidis, replicate 3 [11]: 108.734; Antibacterial activity (in words) [11]: limited activity
